Results taken from US8795632B2, “Disease animal model for chronic pain” (Astellas Pharma Inc., priority 2008, dated 2014).

Legend:
Sprague-Dawley rats [1] = assay: Heat sensitivity (Hargreaves method) after reserpine single administration; assay type: in vivo, rat; conditions: reserpine 3 mg/kg single s.c.
Procedure: Measurement of the heat sensitivity was carried out by the method of Hargreaves et al. (Hargreaves et al., Pain, 32, 77-88, 1988). A transparent measuring box was put on a glass plate supported with platforms and a rat was put therein and acclimatized. A mobile infrared heat source was arranged under the glass plate and focused on the plantar surface of the right hind paw of the rat. A latency time required for the rat to show a withdrawal reaction of right hind leg from the heat source was measured as a withdrawal latency time and used as the index of heat sensitivity. According to this measuring system, shorter withdrawal latency time represents acceleration of the skin heat sensitivity.
(§1) Influences of the reserpine single administration upon the muscle pressure pain threshold value, skin pain sensation threshold value, cold sensitivity and heat sensitivity were examined in accordance with the following protocol. A total of 12 male rats were used. The muscle pressure pain threshold value, skin pain sensation threshold value, cold sensitivity and heat sensitivity before the reserpine treatment (base lines) were measured and then they were divided into a solvent (0.5% acetic acid aqueous solution) group and a reserpine (3 mg/kg) group (the number of animals per group was 6). […]
(§2) All of the measured values were expressed as average value±standard error. […]

Sprague-Dawley rats [2] = assay: Cold sensitivity (acetone method) after reserpine single administration; assay type: in vivo, rat; conditions: reserpine 3 mg/kg single s.c.
Procedure: Measurement of cold sensitivity was carried out in accordance with the method of Choi et al. (Choi et al., Pain, 59, 369-376, 1994). After adaptation of each rat to a wire mesh bottom cage for measurement, 50 μl of acetone was sprayed to the plantar surface of the right hind paw of the rat using a syringe for insulin injection. The number of reactions of the right hind paw (flinching, lifting and leg licking) occurred during 1 minute just after the spraying was measured and used as the index of cold sensitivity. At each point of time of the measurement, the acetone spraying was carried out 3 times at 5 minute intervals and the average was used as the measured vale. […]
as §1, with “A total of 12 male rats were used.” left out
as §2

Sprague-Dawley rats [3] = assay: Skin pain sensation threshold value after reserpine single administration; assay type: in vivo, rat; conditions: reserpine 3 mg/kg single s.c.
Procedure: Measurement of the skin pain sensation threshold value was carried out in the same manner as in Example 1. That is, this was measured using a series of von Frey filaments having different diameter which can add a constant pressure. […] The von Frey filament was applied using the up and down method. That is, by firstly applying a filament of about middle diameter, a filament having one rank smaller diameter was applied when the withdrawal reaction was observed or a filament having one rank larger diameter was applied when the withdrawal reaction was not observed. The skin pain sensation threshold value at each point of time was calculated as a hind paw withdrawal reaction threshold value (g).
Influences of the reserpine single administration upon the muscle pressure pain threshold value, skin pain sensation threshold value, cold sensitivity and heat sensitivity were examined in accordance with the following protocol. A total of 12 male rats were used. The muscle pressure pain threshold value, skin pain sensation threshold value, cold sensitivity and heat sensitivity before the reserpine treatment (base lines) were measured and then they were divided into a solvent (0.5% acetic acid aqueous solution) group and a reserpine (3 mg/kg) group (the number of animals per group was 6). […] The muscle pressure pain threshold value, skin pain sensation threshold value, cold sensitivity and heat sensitivity of each rat were measured at the points of measurement time of acute phase after administration of the solvent or reserpine (2, 4, 8 and 24 hours) and chronic phase (2, 3, 5, 7, 10, 14 and 21 days).
All of the measured values were expressed as average value±standard error. Statistical significance test of the measured values between the reserpine administration groups and the solvent administration group at each point of time was carried out by the two-way analysis of variance and the Bonferroni method. Probability value (P) of less than 5% was judged as statistically significant (P<0.05 was expressed as * in the graphs).

rats = conditions: single intraperitoneal administration of reserpine in rats; Non-patent Reference 13; cited from earlier work

Structure (SMILES): COC(=O)[C@H]1[C@H]2C[C@@H]3c4[nH]c5cc(OC)ccc5c4CCN3C[C@H]2C[C@@H](OC(=O)c2cc(OC)c(OC)c(OC)c2)[C@@H]1OC [reserpine]
- time after administration at which transient acute-phase acceleration of heat sensitivity recovers (Sprague-Dawley rats [1]): 8 h
- heat sensitivity: withdrawal latency time (Sprague-Dawley rats [1]; 2 and 4 hours and 2 and 5 days after administration): significantly shortened
- cold sensitivity: number of reactions (Sprague-Dawley rats [2]; after 2, 3, 5, 7 and 10 days): significantly increased
- cold sensitivity: number of reactions (Sprague-Dawley rats [2]; within 24 hours after administration): did not show significant increase
- time after administration at which transient acute-phase tactile allodynia recovers (Sprague-Dawley rats [3]): 4 h
- skin pain sensation threshold value (Sprague-Dawley rats [3]; 2, 3, 5, 7, 10, 14 and 21 days after administration): significantly reduced
- skin pain sensation threshold value (Sprague-Dawley rats [3]; after 2 hours): significantly reduced
- sensitivity to thermal stimulation (rats): causes hypersensitivity to thermal stimulation
- time within which hypersensitivity to thermal stimulation disappears (rats): ≤ 24 h
